Laboratory results as given in patent US8101766B2, “Crystalline form of a biphenyl compound” (Theravance, Inc., priority 2004, dated 2012).
pKi: −log10 of the molar value.

How the values were obtained:
cM5 receptor = biological target: T1, cM5 receptor (Pan troglodytes, UniProt Q5IS53); assay: Blockade of agonist-mediated calcium release via FLIPR assay (cM5); format: cell-based, chimpanzee; conditions: CHO cells stably expressing cM5
T1 construct: expressed in transfected cells
T1 sequence (Q5IS53 1-532): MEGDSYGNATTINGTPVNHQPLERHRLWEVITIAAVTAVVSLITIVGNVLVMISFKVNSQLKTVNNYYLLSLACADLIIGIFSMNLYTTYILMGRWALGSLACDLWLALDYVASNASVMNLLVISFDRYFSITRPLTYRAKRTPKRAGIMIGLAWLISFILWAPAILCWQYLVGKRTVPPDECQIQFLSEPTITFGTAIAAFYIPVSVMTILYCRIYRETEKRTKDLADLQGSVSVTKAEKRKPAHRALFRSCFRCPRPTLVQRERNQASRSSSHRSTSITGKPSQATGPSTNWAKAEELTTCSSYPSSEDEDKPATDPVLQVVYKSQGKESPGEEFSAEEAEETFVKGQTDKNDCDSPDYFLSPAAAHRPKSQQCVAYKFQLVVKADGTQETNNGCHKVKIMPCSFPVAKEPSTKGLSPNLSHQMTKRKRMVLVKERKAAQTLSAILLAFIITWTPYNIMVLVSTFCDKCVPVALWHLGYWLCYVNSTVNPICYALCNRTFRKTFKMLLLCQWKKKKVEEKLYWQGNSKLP
Excerpt: (§1) B. Blockade of Agonist-Mediated Calcium Release Via FLIPR Assays
(§2) Muscarinic receptor subtypes (M1, M3 and M5 receptors), which couple to Gq proteins, activate the phospholipase C (PLC) pathway upon agonist binding to the receptor. As a result, activated PLC hydrolyzes phosphatyl inositol diphosphate (PIP2) to diacylglycerol (DAG) and phosphatidyl-1,4,5-triphosphate (IP3), which in turn generates calcium release from intracellular stores, i.e., endoplasmic and sarcoplasmic reticulum. […] This fluorescence event is measured in real time by the FLIPR, which detects the change in fluorescence from a monolayer of cells cloned with human M1 and M3, and chimpanzee M5 receptors. Antagonist potency can be determined by the ability of antagonists to inhibit agonist-mediated increases in intracellular calcium. […]
(§3) To determine antagonist potency, the dose-dependent stimulation of intracellular Ca^2+ release for oxotremorine was first determined so that antagonist potency can later be measured against oxotremorine stimulation at an EC90 concentration. […]
(§4) The parameters used for the FLIPR were: exposure length of 0.4 seconds, laser strength of 0.5 watts, excitation wavelength of 488 nm, and emission wavelength of 550 nm. Baseline was determined by measuring the change in fluorescence for 10 seconds prior to addition of agonist. […]

β2 adrenergic receptor = β2 adrenergic receptor (Homo sapiens, UniProt P07550); assay: Radioligand binding assay for human β2 adrenergic receptor; parameters: expressed in transfected cells; conditions: radioligand displacement, CHO cell membranes
Method: The cell monolayer was lifted with 2 mM EDTA in PBS. […] All membranes were stored frozen in aliquots at −80° C. or used immediately.

hM1 receptor = biological target: T2, hM1 receptor (Homo sapiens, UniProt P11229); assay: Blockade of agonist-mediated calcium release via FLIPR assay (hM1); format: cell-based; conditions: CHO cells stably expressing hM1
T2 construct: expressed in transfected cells
T2 sequence (P11229 1-460): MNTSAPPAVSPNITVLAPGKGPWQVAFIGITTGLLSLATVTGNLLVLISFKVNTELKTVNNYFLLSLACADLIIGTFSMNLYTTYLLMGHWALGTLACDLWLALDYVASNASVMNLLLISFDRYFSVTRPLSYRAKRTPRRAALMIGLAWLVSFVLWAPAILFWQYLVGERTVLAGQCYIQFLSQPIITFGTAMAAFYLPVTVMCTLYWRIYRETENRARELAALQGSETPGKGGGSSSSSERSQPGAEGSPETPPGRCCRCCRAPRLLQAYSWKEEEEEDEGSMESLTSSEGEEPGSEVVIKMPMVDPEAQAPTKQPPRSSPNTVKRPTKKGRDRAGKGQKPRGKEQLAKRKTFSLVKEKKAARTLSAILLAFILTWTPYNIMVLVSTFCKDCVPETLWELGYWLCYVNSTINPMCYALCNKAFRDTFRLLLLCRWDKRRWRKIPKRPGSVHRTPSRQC
Excerpt: as §1, §2, §3, §4

Measured: pKi

Chain of β2 adrenergic receptor (P07550 whole entry): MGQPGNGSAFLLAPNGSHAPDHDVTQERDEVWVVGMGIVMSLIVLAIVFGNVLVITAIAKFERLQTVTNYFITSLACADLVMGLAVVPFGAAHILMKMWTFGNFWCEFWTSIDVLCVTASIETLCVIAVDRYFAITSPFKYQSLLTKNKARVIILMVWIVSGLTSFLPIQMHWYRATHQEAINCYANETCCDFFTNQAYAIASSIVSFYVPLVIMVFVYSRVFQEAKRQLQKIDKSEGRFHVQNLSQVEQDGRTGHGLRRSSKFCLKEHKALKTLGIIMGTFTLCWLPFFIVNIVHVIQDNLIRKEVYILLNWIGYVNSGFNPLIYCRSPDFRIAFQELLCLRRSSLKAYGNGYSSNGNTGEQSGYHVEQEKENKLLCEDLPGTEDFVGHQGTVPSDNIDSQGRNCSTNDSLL

COc1cc(NC(=O)CCN2CCC(OC(=O)Nc3ccccc3-c3ccccc3)CC2)c(Cl)cc1CNC[C@H](O)c1ccc(O)c2[nH]c(=O)ccc12 [compound of formula I, biphenyl-2-ylcarbamic acid 1-[2-(2-chloro-4-{[(R)-2-hydroxy-2-(8-hydroxy-2-oxo-1,2-dihydroquinolin-5-yl)ethylamino]methyl}-5-methoxyphenylcarbamoyl)ethyl]piperidin-4-yl ester]
> 8.00: all assays above
